According to US20140350014A1, “COMPOUNDS FOR INHIBITING THE INTERACTION OF BCL2 WITH BINDING PARTNERS” (NOVARTIS AG, priority 2011, published 2014):

Tests used:
[1] = target: BCL-2 binding to BAD peptide (Homo sapiens, UniProt P10415); assay: BCL2 SPR solution inhibition assay, BAD peptide surface (Biacore A100); conditions: read-out: BCL2_SPR IC50 BAD
Description: (§1) 33The present method includes utility of a Surface plasmon resonance (SPR)-based biosensor (Bia34core™′ GE Healthcare, Uppsala, Sweden) to characterize BCL-2 inhibitors. 35
(§2) 36Biacore™ utilizes the phenomenon of surface plasmon resonance (SPR) to detect and measure 37binding interactions. In a typical Biacore experiment, one of the interacting molecules (ligand) is i38mmobilized on a flexible dextran matrix while the interacting partner (analyte) is allowed to fl39ow across that surface. A binding interaction results in an increase in mass on the sensor surface 40and a corresponding direct change in the refractive index of the medium in the vicinity of the 41sensor surface. Changes in refractive index or signal are recorded in resonance units (R.U.) Signal 42changes due to association and dissociation of complexes are monitored in a non-invasive manne43r, continuously and in real-time, the results of which are reported in the form of a sensorgram.44
(§3) The SPR assay is con45figured to examine solution inhibition of BCL-2 binding to peptide derivatized sensor surfa46ces to generate IC50 values as a measure of inhibitor potency.
(§4) Biacore™ A100 (GE Healthcare, Uppsala, Sweden) was used to conduct all experiments reported herein. Sensor surface preparation and all interaction analyses experiments were performed at 25° C. Reagents were purchased from GE Healthcare. Running buffer containing 10 mM Hepes, pH7.4, 150 mM sodium chloride, 1.25 mM Dithiothreitol, 3% Dimethyl sulfoxide and 0.05% polysorbate 20 were utilized throughout all analyses.
(§5) Biotinylated BAK, BAD and NOXA peptides were diluted to 10 nM in running buffer and captured onto a sensor surface pre-derivatized with streptavidin (sensor chip SA) to peptide surface densities in the range 50-100 R.U. Peptide captured surfaces were blocked with 500 μM PEO2-Biotin.
(§6) Interaction analyses were performed by first equilibrating each sample within a 6 point three fold compound dilution series in the range 16 μM to […] with 56 nM BCL-2 for one hour during instrument start-up procedures. Protein compound mixtures were then injected over each peptide surface in parallel for 60 seconds at a flow-rate of 30 μL/min. 56 nM BCL-2 control samples were also prepared and run at regular intervals during the assay. Surface regeneration was performed at the end of each analysis cycle by two 30 second injections of 10 mM Glycine, pH 2.5, 1M Sodium Chloride, 0.05% polysorbate 20. Samples and control compound samples were run in duplicate and controls are also run at regular intervals during the assay to monitor surface and assay performance.
(§7) Data analyses are carried out using Biacore™ A100 evaluation software v1.1 to validate assay quality. Binding level report points were used relative to BCL-2 control samples to calculate % inhibition values for each compound protein mixture. […] The range of data shown in table 1 represents the high and low IC50 values obtained from multiple experiments.

[2] = target: BCL-2 binding to BAK peptide (Homo sapiens, UniProt P10415); assay: BCL2 SPR solution inhibition assay, BAK peptide surface (Biacore A100); conditions: read-out: BCL2_SPR IC50 BAK
Chain of BCL-2 binding to BAK peptide (P10415 whole entry): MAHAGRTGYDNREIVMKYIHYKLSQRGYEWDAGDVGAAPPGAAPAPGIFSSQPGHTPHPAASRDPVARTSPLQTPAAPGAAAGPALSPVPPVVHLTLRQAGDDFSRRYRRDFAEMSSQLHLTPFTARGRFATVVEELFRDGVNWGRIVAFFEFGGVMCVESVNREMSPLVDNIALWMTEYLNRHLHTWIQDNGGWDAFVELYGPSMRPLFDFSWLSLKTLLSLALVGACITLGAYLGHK
Description: as §1, §2, §3, §4, §5, §6, §7

Chain of BCL-2 binding to BAD peptide (P10415 whole entry): as above

Structure (SMILES)	IC50 [1]	IC50 [2]
CCCCN(CCCC)C(=O)c1cc(C)n(-c2ccc(-c3ccc(Cl)c(C(=O)N(C)C)c3)cc2C(=O)N2Cc3ccccc3C[C@H]2CO)n1 [Example 39]	727 to 738 nM	617 to 657 nM
CCCCN(CCCC)C(=O)c1cc(C)n(-c2ccc(-c3ccccc3C#N)cc2C(=O)N2Cc3ccccc3C[C@H]2CO)n1 [Example 40]	6490 to 7830 nM	4940 to 5880 nM
CCCCN(CCCC)C(=O)c1cc(C)n(-c2ccc(-c3c(C)noc3C)cc2C(=O)N2Cc3ccccc3C[C@H]2CO)n1 [Example 41]	1930 to 2030 nM	1800 to 2550 nM
CCCCN(CCCC)C(=O)c1cc(C)n(-c2ccc(-c3cccc(F)c3Cl)cc2C(=O)N2Cc3ccccc3C[C@H]2CO)n1 [Example 42]	7080 to 10200 nM	6370 to 7210 nM
CCCCN(CCCC)C(=O)c1cc(C)n(-c2ccc(-c3cc(C)cc(C)c3)cc2C(=O)N2Cc3ccccc3C[C@H]2CO)n1 [Example 43]	593 to 614 nM	886 to 905 nM
CCCCN(CCCC)C(=O)c1cc(C)n(-c2ccc(-c3ccc(F)c(F)c3)cc2C(=O)N2Cc3ccccc3C[C@H]2CO)n1 [Example 44]	2090 to 2180 nM	2500 to 2960 nM
CCCCN(CCCC)C(=O)c1cc(C)n(-c2ccc(-c3cccc(Cl)c3Cl)cc2C(=O)N2Cc3ccccc3C[C@H]2CO)n1 [Example 45]	7160 to 7600 nM	7410 to 7540 nM
CCCCN(CCCC)C(=O)c1cc(C)n(-c2ccc(-c3ccc(OC)c4ccccc34)cc2C(=O)N2Cc3ccccc3C[C@H]2CO)n1 [Example 46]	> 16000 nM	> 16000 nM
CCCCN(CCCC)C(=O)c1cc(C)n(-c2ccc(-c3cccc(C)c3)cc2C(=O)N2Cc3ccccc3C[C@H]2CO)n1 [Example 47]	619 to 631 nM	503 to 589 nM
CCCCN(CCCC)C(=O)c1cc(C)n(-c2ccc(-c3ccc(S(=O)(=O)N4CCOCC4)cc3)cc2C(=O)N2Cc3ccccc3C[C@H]2CO)n1 [Example 48]	953 to 964 nM	665 to 675 nM
CCCCN(CCCC)C(=O)c1cc(C)n(-c2ccc(-c3cccc(OC)c3)cc2C(=O)N2Cc3ccccc3C[C@H]2CO)n1 [Example 49]	896 to 978 nM	626 to 696 nM
CCCCN(CCCC)C(=O)c1cc(C)n(-c2ccc(-c3ccc(C)c(C)c3)cc2C(=O)N2Cc3ccccc3C[C@H]2CO)n1 [Example 50]	881 to 933 nM	793 to 883 nM
CCCCN(CCCC)C(=O)c1cc(C)n(-c2ccc(-c3ccc(OCC)nc3)cc2C(=O)N2Cc3ccccc3C[C@H]2CO)n1 [Example 51]	856 to 894 nM	656 to 741 nM

The next lines start with the values.

IC50 [1]	IC50 [2]	Structure (SMILES)
567 to 629 nM	471 to 479 nM	CCCCN(CCCC)C(=O)c1cc(C)n(-c2ccc(-c3ccc(OC)c(OC)c3)cc2C(=O)N2Cc3ccccc3C[C@H]2CO)n1 [Example 52]
811 to 996 nM	607 to 779 nM	CCCCN(CCCC)C(=O)c1cc(C)n(-c2ccc(-c3cccc4cnccc34)cc2C(=O)N2Cc3ccccc3C[C@H]2CO)n1 [Example 53]
938 to 952 nM	803 to 845 nM	CCCCN(CCCC)C(=O)c1cc(C)n(-c2ccc(-c3cc(Cl)ccc3OC)cc2C(=O)N2Cc3ccccc3C[C@H]2CO)n1 [Example 54]
722 to 764 nM	564 to 617 nM	CCCCN(CCCC)C(=O)c1cc(C)n(-c2ccc(-c3ccc(OC(C)C)cc3)cc2C(=O)N2Cc3ccccc3C[C@H]2CO)n1 [Example 55]
284 to 296 nM	215 to 238 nM	CCCCN(CCCC)C(=O)c1cc(C)n(-c2ccc(-c3cc(OC)c(OC)c(OC)c3)cc2C(=O)N2Cc3ccccc3C[C@H]2CO)n1 [Example 56]
605 to 653 nM	556 to 689 nM	CCCCN(CCCC)C(=O)c1cc(C)n(-c2ccc(-c3ccc4cc(OC)ccc4c3)cc2C(=O)N2Cc3ccccc3C[C@H]2CO)n1 [Example 57]
151 to 152 nM	111 to 112 nM	CCCCN(CCCC)C(=O)c1cc(C)n(-c2ccc(-c3ccc(C(=O)NC)c(Cl)c3)cc2C(=O)N2Cc3ccccc3C[C@H]2CO)n1 [Example 58]
635 to 652 nM	540 to 583 nM	CCCCN(CCCC)C(=O)c1cc(C)n(-c2ccc(-c3cc(F)cc(OC(C)C)c3)cc2C(=O)N2Cc3ccccc3C[C@H]2CO)n1 [Example 59]
608 to 612 nM	432 to 458 nM	CCCCN(CCCC)C(=O)c1cc(C)n(-c2ccc(-c3ccc(S(C)(=O)=O)cc3)cc2C(=O)N2Cc3ccccc3C[C@H]2CO)n1 [Example 60]
458 to 474 nM	331 to 344 nM	CCCCN(CCCC)C(=O)c1cc(C)n(-c2ccc(-c3cc(F)cc(C(=O)NC)c3)cc2C(=O)N2Cc3ccccc3C[C@H]2CO)n1 [Example 61]
543 to 551 nM	763 to 799 nM	CCCCN(CCCC)C(=O)c1cc(C)n(-c2ccc(-c3cccc(-c4nnc(C)o4)c3)cc2C(=O)N2Cc3ccccc3C[C@H]2CO)n1 [Example 62]
2070 to 2140 nM	1710 to 1850 nM	CCCCN(CCCC)C(=O)c1cc(C)n(-c2ccc(-c3ccc(Cl)cc3)cc2C(=O)N2Cc3ccccc3C[C@H]2CO)n1 [Example 63]
4460 to 4810 nM	3380 to 4000 nM	CCCCN(CCCC)C(=O)c1cc(C)n(-c2ccc(-c3ccc(F)cc3Cl)cc2C(=O)N2Cc3ccccc3C[C@H]2CO)n1 [Example 64]
10600 to 12300 nM	6340 to 6900 nM	CCCCN(CCCC)C(=O)c1cc(C)n(-c2ccc(-c3c(OC)cccc3OC)cc2C(=O)N2Cc3ccccc3C[C@H]2CO)n1 [Example 65]
998 to 1060 nM	936 to 976 nM	CCCCN(CCCC)C(=O)c1cc(C)n(-c2ccc(-c3cc(C)cc(F)c3)cc2C(=O)N2Cc3ccccc3C[C@H]2CO)n1 [Example 66]
823 to 857 nM	785 to 804 nM	CCCCN(CCCC)C(=O)c1cc(C)n(-c2ccc(-c3ccc4ccccc4c3)cc2C(=O)N2Cc3ccccc3C[C@H]2CO)n1 [Example 67]
1160 to 1210 nM	1050 to 1100 nM	CCCCN(CCCC)C(=O)c1cc(C)n(-c2ccc(-c3ccc(N(C)C)cc3)cc2C(=O)N2Cc3ccccc3C[C@H]2CO)n1 [Example 68]
5450 to 5510 nM	4420 to 4570 nM	CCCCN(CCCC)C(=O)c1cc(C)n(-c2ccc(-c3c(-c4ccccc4)noc3C)cc2C(=O)N2Cc3ccccc3C[C@H]2CO)n1 [Example 69]
